One compound from patent US10745355B2, “Anti-cancer compounds” (THE UNIVERSITY OF SYDNEY, priority 2015, dated 2020) can be followed below.

The test system of one experiment is U87vIII. The experiment in a line: Alamar blue cell viability assay, U87vIII cells. In kind it is cell-based. The settings on record: 72 hours of treatment; mean±SEM, three independent experiments. How it is done:
U87 and U251 cell lines were obtained from the European Collection of Cell Cultures (ECACC) through CellBank Australia. U87-EGFRvIII cell line was obtained from their lab of origin (Nishikawa et al., 1994, Proc Natl Acad Sci USA 91: 7727-7731) and tested for EGFR amplification and mutation by immunoblotting and flow cytometry. Cells were cultured in DMEM medium (Invitrogen by Life Technologies, Carlsbad, Calif., USA) supplemented with 10% FBS (Sigma-Aldrich) at 37° C. and 5% CO2. Primary gliomaspheres (RN1, classical; WK1, mesenchymal) were derived from glioblastoma specimens (Day et al., 2013, Cancers 5: 357-371; Day et al., 2013, Cancer Cell 23: 238-248), maintained in StemPro NSC serum-free media supplemented with EGF and FGF (all Life Technologies), and grown on matrigel-coated flasks (Pollard et al., 2009, Cell Stem Cell 4: 568-580).
Cell viability was determined using Alamar blue assay after 72 hours of treatment (Table 2). EC50 values were calculated using non-linear regression on Graph Pad Prism version 5. c Log P values calculated using ChemBioDraw Software. Results are mean±SEM from three independent experiments performed in triplicates.

In another experiment the target is ALK (Homo sapiens, UniProt Q9UM73). Nature of the experiment: Kinase profiling (ProQinase 33PanQinase Activity Assay), ALK. In kind it is biochemical. The conditions noted are these: read-out: residual activity, ALK. The method, then:
(§1) The kinase profiling of compound 1-08 at 10 and 50 μM was performed by ProQinase GmbH (Freiburg, Germany). A radiometric protein kinase assay (^33PanQinase® Activity Assay) and the non-radiometric ADP-Glo™ Assay (Promega, Madison, Wis., USA) were used for measuring kinase activity of 387 protein kinases and 13 lipid kinases, respectively. The results are shown in Table 3 (only the top 10 kinases are listed, and the selectivity score describes the portion of kinases inhibited more than 50% in relation to all tested kinases).

The target in the next experiment is SRC (Homo sapiens, UniProt P12931). The experiment in a line: Kinase profiling (ProQinase 33PanQinase Activity Assay), SRC. In kind it is biochemical. The conditions noted are these: read-out: residual activity, SRC. How it is done:
as §1

The target in another experiment is T1, EPHB1 (Homo sapiens, UniProt P54762).
T1 sequence (P54762 18-984): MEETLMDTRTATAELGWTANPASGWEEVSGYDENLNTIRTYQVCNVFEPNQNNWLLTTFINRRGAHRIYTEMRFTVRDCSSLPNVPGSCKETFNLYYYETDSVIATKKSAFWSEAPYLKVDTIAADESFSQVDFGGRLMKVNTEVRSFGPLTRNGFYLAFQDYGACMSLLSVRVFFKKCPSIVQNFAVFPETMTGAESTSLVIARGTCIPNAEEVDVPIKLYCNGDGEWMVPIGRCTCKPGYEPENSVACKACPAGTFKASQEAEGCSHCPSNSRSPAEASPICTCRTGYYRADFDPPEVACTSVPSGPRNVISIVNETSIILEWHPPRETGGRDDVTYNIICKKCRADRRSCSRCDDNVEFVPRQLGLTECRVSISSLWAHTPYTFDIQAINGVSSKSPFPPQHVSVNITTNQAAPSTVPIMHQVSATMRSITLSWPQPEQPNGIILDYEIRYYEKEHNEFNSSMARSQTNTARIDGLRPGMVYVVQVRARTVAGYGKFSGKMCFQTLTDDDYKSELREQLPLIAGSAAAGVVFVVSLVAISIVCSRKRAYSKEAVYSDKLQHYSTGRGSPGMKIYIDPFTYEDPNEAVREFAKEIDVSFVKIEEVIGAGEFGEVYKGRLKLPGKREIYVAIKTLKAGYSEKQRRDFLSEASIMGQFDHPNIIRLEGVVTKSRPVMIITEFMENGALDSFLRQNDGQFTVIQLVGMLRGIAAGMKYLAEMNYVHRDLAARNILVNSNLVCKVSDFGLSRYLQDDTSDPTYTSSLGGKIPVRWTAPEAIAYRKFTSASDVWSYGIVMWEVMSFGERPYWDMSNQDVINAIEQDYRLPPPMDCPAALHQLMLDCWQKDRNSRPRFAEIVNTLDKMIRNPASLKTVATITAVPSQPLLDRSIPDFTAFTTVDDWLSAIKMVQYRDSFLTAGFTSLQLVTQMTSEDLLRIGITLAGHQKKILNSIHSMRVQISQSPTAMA
The experiment in a line: Kinase profiling (ProQinase 33PanQinase Activity Assay), EPHB1. In kind it is biochemical. The settings on record: read-out: residual activity, EPHB1. How it is done:
as §1

The next experiment deals with BRK (Homo sapiens, UniProt Q13882). Nature of the experiment: Kinase profiling (ProQinase 33PanQinase Activity Assay), BRK. In kind it is biochemical. The conditions noted are these: read-out: residual activity, BRK. How it is done: as §1
BRK, sequence (Q13882 whole entry): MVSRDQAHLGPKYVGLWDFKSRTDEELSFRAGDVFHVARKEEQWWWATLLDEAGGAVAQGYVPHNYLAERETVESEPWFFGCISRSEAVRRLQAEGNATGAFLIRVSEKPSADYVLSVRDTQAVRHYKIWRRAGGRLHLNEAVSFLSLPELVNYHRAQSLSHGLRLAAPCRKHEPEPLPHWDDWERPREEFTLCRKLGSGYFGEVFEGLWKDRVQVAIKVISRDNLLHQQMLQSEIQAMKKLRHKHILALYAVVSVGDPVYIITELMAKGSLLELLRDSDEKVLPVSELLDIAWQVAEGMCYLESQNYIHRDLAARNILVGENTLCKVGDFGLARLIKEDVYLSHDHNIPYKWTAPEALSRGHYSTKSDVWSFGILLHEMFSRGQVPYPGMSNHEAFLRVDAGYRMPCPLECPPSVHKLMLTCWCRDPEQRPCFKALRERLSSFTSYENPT
The next experiment has as its target T2, Porcine brain tubulin (Sus scrofa, UniProt P02550+P02554).
T2 construct: purchased Cytoskeleton, Colo., USA (Tubulin Polymerisation Assay kit); host or cells: porcine brain (tissue-purified)
The experiment in a line: Fluorescence-based tubulin polymerisation assay. In kind it is biochemical. The settings on record: 37° C., FIG. 10A. How it is done:
FIGS. 10A-10D. […] (10A) Compound 1-08 inhibits tubulin polymerisation in vitro. Data are expressed as mean from at least 3 independent experiments; each data point was performed in triplicates. (10B) U87 cells treated with compound 1-08 (24 h) were stained with Alexa488-labelled anti-β-tubulin antibody (green) or DAPI (blue). Treatment profoundly disturbed the microtubule network and caused formation of multinucleated cell (white arrows). White scale bar represents 50 μm. Multinucleated cells were manually counted and at least 200 cells were counted for each sample. Data in the bar graph (10C) are expressed as mean±SEM (n=3; * P<0.05, *** P<0.001; 1-way ANOVA followed by Newman-Keuls posttest). (10D) U87 cells were treated with compound 1-08 (48 h), tubulin and DNA were stained as in (10B). Treatment with 1-08 caused defective mitotic spindle formation. Representative images from 3 independent experiments are shown. White scale bar represents 2 μm.
The effect of compound 1-08 on tubulin polymerisation and mitotic spindle formation was also investigated. The fluorescence-based tubulin polymerisation assay was conducted in the final volume of 55 μL using the Tubulin Polymerisation Assay kit (Cytoskeleton, Colo., USA) as per the manufacturer's instructions. Porcine brain tubulin was incubated with test compounds (paclitaxel, vinblastine and compound 1-08) at 37° C. and fluorescence was measured using FLUOstar Omega microplate reader (BMG Labtech, Ortenberg, Germany; excitation at 355 nm and emission at 460 nm). […] To test whether compound 1-08 alters microtubules in vivo, U87 glioblastoma cells were treated with compound 1-08 and the effect on the microtubules was determined by immunofluorescence staining of β-tubulin. […] The consequence of microtubule depolymerisation induced by compound 13 was disrupted spindle assembly (FIG. 10D). In untreated U87 cells undergoing mitosis, microtubules are assembled into bipolar spindles (control images).

SRC, sequence (P12931 whole entry): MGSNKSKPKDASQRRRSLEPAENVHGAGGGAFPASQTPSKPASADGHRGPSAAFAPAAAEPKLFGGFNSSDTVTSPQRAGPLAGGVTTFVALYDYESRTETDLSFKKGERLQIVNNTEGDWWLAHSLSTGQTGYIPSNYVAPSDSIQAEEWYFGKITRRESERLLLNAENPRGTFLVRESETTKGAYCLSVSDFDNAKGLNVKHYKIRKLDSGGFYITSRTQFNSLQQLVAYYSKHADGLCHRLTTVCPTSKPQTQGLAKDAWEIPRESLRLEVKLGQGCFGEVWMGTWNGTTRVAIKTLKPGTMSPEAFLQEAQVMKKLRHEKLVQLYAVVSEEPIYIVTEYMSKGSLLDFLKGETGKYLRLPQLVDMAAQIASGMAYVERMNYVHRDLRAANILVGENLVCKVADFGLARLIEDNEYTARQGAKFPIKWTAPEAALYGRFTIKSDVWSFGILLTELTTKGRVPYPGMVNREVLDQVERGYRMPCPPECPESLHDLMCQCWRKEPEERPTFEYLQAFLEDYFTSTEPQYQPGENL
ALK, sequence (Q9UM73 19-1620): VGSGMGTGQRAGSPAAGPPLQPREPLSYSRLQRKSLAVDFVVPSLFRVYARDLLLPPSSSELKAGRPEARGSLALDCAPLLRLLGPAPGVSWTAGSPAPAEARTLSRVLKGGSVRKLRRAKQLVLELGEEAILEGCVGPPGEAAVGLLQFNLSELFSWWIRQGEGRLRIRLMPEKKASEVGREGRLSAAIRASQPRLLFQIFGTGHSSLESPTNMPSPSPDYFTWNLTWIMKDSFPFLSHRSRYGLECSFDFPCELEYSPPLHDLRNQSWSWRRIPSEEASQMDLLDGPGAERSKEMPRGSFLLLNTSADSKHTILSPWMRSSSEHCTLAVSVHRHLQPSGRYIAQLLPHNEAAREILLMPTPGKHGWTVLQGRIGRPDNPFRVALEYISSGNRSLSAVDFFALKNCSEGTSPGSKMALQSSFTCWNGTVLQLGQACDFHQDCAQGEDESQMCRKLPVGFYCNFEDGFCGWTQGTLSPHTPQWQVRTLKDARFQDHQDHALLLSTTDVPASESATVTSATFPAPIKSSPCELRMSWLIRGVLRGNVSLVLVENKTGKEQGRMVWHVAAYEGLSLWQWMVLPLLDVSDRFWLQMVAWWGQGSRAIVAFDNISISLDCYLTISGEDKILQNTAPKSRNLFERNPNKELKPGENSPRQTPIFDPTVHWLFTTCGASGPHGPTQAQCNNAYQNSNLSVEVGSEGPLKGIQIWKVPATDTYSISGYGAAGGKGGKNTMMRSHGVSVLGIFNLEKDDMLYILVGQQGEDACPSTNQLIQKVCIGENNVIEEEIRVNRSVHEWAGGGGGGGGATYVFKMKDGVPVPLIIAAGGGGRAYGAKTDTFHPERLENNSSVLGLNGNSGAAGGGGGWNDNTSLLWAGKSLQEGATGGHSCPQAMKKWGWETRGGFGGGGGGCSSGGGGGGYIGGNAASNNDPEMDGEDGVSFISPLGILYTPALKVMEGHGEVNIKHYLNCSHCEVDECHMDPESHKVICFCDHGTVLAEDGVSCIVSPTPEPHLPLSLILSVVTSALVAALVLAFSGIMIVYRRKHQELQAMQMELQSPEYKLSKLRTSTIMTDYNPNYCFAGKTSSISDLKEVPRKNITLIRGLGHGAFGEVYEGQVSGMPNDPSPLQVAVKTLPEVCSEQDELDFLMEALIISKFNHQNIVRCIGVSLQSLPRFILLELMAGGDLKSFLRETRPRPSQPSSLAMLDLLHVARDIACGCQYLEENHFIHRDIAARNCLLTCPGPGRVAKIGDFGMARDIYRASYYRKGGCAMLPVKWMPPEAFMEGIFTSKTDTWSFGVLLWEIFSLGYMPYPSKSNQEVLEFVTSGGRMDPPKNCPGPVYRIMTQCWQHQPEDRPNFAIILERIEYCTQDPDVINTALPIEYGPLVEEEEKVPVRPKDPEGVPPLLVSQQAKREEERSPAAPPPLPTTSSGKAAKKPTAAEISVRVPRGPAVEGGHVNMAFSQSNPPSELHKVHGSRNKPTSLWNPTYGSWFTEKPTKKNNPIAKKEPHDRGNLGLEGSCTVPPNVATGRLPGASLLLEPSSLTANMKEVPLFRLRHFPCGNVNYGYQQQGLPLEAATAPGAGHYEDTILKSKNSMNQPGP
T2 sequence (P02550 whole entry): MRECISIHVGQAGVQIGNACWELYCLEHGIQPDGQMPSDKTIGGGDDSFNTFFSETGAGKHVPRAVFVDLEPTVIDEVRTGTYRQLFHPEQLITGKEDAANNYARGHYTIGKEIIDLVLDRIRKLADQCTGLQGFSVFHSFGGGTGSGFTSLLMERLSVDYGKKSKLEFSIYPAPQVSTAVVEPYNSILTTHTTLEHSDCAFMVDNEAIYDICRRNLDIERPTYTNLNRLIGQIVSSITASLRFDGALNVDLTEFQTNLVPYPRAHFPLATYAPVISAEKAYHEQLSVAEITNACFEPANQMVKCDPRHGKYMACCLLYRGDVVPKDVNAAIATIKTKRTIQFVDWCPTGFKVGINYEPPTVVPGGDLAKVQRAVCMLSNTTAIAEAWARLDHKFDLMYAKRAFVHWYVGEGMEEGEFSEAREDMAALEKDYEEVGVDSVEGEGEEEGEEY
T2 sequence (P02554 whole entry): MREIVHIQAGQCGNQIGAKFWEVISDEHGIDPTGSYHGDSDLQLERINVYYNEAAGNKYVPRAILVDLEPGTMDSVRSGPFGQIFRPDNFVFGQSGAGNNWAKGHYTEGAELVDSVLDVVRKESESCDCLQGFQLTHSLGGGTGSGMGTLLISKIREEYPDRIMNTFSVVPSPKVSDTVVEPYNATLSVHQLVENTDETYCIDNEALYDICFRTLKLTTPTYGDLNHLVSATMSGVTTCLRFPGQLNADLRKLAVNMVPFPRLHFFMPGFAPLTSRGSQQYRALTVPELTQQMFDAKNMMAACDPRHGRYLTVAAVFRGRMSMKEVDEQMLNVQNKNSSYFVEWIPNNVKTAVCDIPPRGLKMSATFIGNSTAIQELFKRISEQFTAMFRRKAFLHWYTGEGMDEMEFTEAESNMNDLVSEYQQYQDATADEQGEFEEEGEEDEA

Compound `O=C(CCCc1ccc(-c2cnc3ccccc3c2)cc1)Nc1ccc(O)cc1` [Compound 1-08, N-(4-hydroxyphenyl)-4-(4-(quinolin-3-yl)phenyl)butanamide] returned an EC50 in the experiment on U87vIII of 1300 ± 400 nM. Besides, the remaining activity at 10 µM at ALK (10 μM compound) stood at 76%; at SRC (10 μM compound), 57%; on EPHB1 (10 μM compound) it was 57%; at BRK (10 μM compound), 74%. The remaining activity at 50 µM on ALK (50 μM compound) was 21%; on SRC (50 μM compound), 21%; on EPHB1 (50 μM compound) it was 20%; on BRK (50 μM compound), 29%. Also, the “effect on tubulin polymerisation compared to control” value at Porcine brain tubulin is listed as “inhibited tubulin polymerisation in a dose-dependent manner”.
